The subject of assay [1] is Candida albicans. On the set-up: method as in PMID 15790671. The conditions noted are these: addition of both Fe^2+ and Fe^3+; cited from earlier work.
Assay [2] relates to C. albicans. Also noted: method as in PMID 12760852. As to conditions: 6 months of treatment in vitro; cited from earlier work.
Assay [3] concerns C. albicans wild type (SN95, SN152) and ire1Δ/Δ, hap43Δ/Δ, rim101Δ/Δ. The experiment in a line: microbe, parasite or virus in culture. In kind it is cell-based, Candida albicans. As to conditions: mutants versus wild type.
Assay [4] has as its system Candida glabrata. The experiment in a line: Growth inhibition by CLSI microbroth dilution. Type of assay: cell-based. The conditions noted are these: Nakaseomyces glabratus, 48 h, >90% growth inhibition.
For assay [5], the system named is Candida parapsilosis. Nature of the assay: Growth inhibition by CLSI microbroth dilution. The conditions noted are these: 48 h, >90% growth inhibition. Type of assay: cell-based. (In broth dilution the organism is exposed to a series of concentrations in liquid medium.)
The test system of assay [6] is Candida albicans. Nature of the assay: Growth inhibition by CLSI microbroth dilution. In kind it is cell-based. As to conditions: Candida albicans, >90% growth inhibition, 48 h.
Assay [7] has as its system Candida auris. The experiment in a line: Growth inhibition by CLSI microbroth dilution. In kind it is cell-based. As to conditions: Candidozyma auris, 48 h.
In assay [8] the test system is C. albicans wild type (CAF2-1) and cdr1Δ/Δ cdr2Δ/Δ mdr1Δ/Δ flu1Δ/Δ. The experiment in a line: microbe, parasite or virus in culture. Type of assay: cell-based, Candida albicans. The conditions noted are these: for MIC90: Candida albicans, 72 h, RPMI-1640, 72 h, 30 °C, OD600.
The mark [9] stands for this setting: strain AR Bank #0381, >90% growth inhibition.
Where [10] appears, read: strain AR Bank #0387, >90% growth inhibition.
Setting [11] is: strain AR Bank #0390, >90% growth inhibition.

Values after ≈ are worked out from the molar mass of the structure shown.

With `Cc1cc(C2CCCCC2)n(O)c(=O)c1` [ciclopirox], in assay [1], the “Antifungal activity on addition of iron” value is on record as “abrogated”. For the same compound, the Development of resistance entry in assay [2] is “did not develop”.

Turning to “bathophenanthrolinedisulfonate [BPS, reference compound]”, the “Effect of deletion of IRE1, HAP43 and RIM101 on sensitivity” value in assay [3] is “hypersensitive”.

Take `C[C@@H]1[C@H](O)[C@@H](C)/C=C/C=C/C=C/C=C/C=C/C=C/C=C/[C@H](O[C@@H]2O[C@H](C)[C@@H](O)[C@H](N)[C@@H]2O)C[C@@H]2O[C@](O)(C[C@@H](O)C[C@@H](O)[C@H](O)CC[C@@H](O)C[C@@H](O)CC(=O)O[C@H]1C)C[C@H](O)[C@H]2C(=O)O` [AMB, amphotericin B]: the MIC – broadly, the lowest concentration found to suppress growth – was 1 µg/mL (≈ 1.08 µM) in assay [4] (strain AR Bank #0325); 1 µg/mL (≈ 1.08 µM) in assay [4] (strain AR Bank #0326); 1 µg/mL (≈ 1.08 µM) in assay [5] (strain AR Bank #0335); 1 µg/mL (≈ 1.08 µM) in assay [5] (strain AR Bank #0337); 1 µg/mL (≈ 1.08 µM) in assay [5] (strain AR Bank #0338); 2 µg/mL (≈ 2.16 µM) in assay [5] (strain AR Bank #0339). For the same compound, the MIC in assay [6] (ATCC90028, strain ATCC 90028) came to 1 µg/mL (≈ 1.08 µM); in assay [6] (strain MH12) it was 1 µg/mL (≈ 1.08 µM); in assay [7] (setting [9]), 1 µg/mL (≈ 1.08 µM); in assay [7] (setting [10]), 0.5 µg/mL (≈ 0.541 µM); in assay [7] (setting [11]) it was 2 µg/mL (≈ 2.16 µM).

For the compound `OC(Cn1cncn1)(Cn1cncn1)c1ccc(F)cc1F` [FLC, fluconazole], the MIC was more than 8 µg/mL in assay [4] (strain AR Bank #0325); 4 µg/mL (≈ 13.1 µM) in assay [4] (strain AR Bank #0326); more than 8 µg/mL in assay [5] (strain AR Bank #0335); more than 8 µg/mL in assay [5] (strain AR Bank #0337); more than 8 µg/mL in assay [5] (strain AR Bank #0338); more than 8 µg/mL in assay [5] (strain AR Bank #0339). The MIC is 0.25 µg/mL (≈ 0.816 µM) in assay [6] (ATCC90028, strain ATCC 90028); more than 8 µg/mL in assay [6] (strain MH12); 4 µg/mL (≈ 13.1 µM) in assay [7] (setting [9]); 1 µg/mL (≈ 3.27 µM) in assay [7] (setting [10]); more than 8 µg/mL in assay [7] (setting [11]). Also, the MIC90 is more than 5 µg/mL in assay [8] (Wild type (CAF2-1)) and 0.16 µg/mL (≈ 0.522 µM) in assay [8] (cdr1Δ/Δ cdr2Δ/Δ mdr1Δ/Δ flu1Δ/Δ). Moreover, the “Effect of absence of major efflux pumps (CDR1, CDR2, FLU1, MDR1) on sensitivity” value in assay [8] (mutant versus wild type) is reported as “hypersensitivity”.

Regarding `CC(=O)N1CCN(c2ccc(OCC3COC(Cn4ccnc4)(c4ccc(Cl)cc4Cl)O3)cc2)CC1` (stereo not drawn) [KTC, ketoconazole], the MIC came to 4 µg/mL (≈ 7.53 µM) in assay [4] (strain AR Bank #0325); 0.25 µg/mL (≈ 0.47 µM) in assay [4] (strain AR Bank #0326); 4 µg/mL (≈ 7.53 µM) in assay [5] (strain AR Bank #0335); 2 µg/mL (≈ 3.76 µM) in assay [5] (strain AR Bank #0337); 0.5 µg/mL (≈ 0.941 µM) in assay [5] (strain AR Bank #0338); 0.25 µg/mL (≈ 0.47 µM) in assay [5] (strain AR Bank #0339). The MIC is less than 0.0039 µg/mL in assay [6] (ATCC90028, strain ATCC 90028); 1 µg/mL (≈ 1.88 µM) in assay [6] (strain MH12); less than 0.0039 µg/mL in assay [7] (setting [9]); less than 0.0039 µg/mL in assay [7] (setting [10]); 0.5 µg/mL (≈ 0.941 µM) in assay [7] (setting [11]).
